In PubChem BioAssay (NCI):
Values joined by “and” are separate entries in the source; they are usually repeats but may differ in a detail not shown here. Identical values can stand only once.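 Interpolation was linear, between the two tested concentrations surrounding the appropriate level; five concentrations were tested over 48 hours in 96-well plates. GI50 = concentration required for 50% inhibition of growth. Definition used: TGI = concentration required for complete inhibition of growth.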

How the values were obtained:
Assay in all cases: growth of human tumour cells (NCI), 48 h
SR leukemia = tested on: SR leukemia
PC-3 prostate = tested on: PC-3 prostate
HCT-15 colon = tested on: HCT-15 colon
HT29 colon = tested on: HT29 colon
MCF7 breast = tested on: MCF7 breast
LOX IMVI melanoma = tested on: LOX IMVI melanoma
KM12 colon = tested on: KM12 colon
SW-620 colon = tested on: SW-620 colon
OVCAR-4 ovarian = tested on: OVCAR-4 ovarian
EKVX NSCLC = tested on: EKVX NSCLC
CAKI-1 renal = tested on: CAKI-1 renal

SMILES	TGI (SR leukemia)	TGI (PC-3 prostate)	TGI (HCT-15 colon) [µM]	TGI (HT29 colon)	TGI (MCF7 breast)	TGI (LOX IMVI melanoma)	TGI (KM12 colon) [µM]	TGI (SW-620 colon)	TGI (OVCAR-4 ovarian)	TGI (EKVX NSCLC)	TGI (CAKI-1 renal)	GI50 (SR leukemia) [µM]	GI50 (PC-3 prostate) [µM]	GI50 (HCT-15 colon) [µM]	GI50 (LOX IMVI melanoma) [µM]	GI50 (KM12 colon) [µM]	GI50 (SW-620 colon) [µM]	GI50 (OVCAR-4 ovarian) [µM]	GI50 (EKVX NSCLC) [µM]	GI50 (CAKI-1 renal) [µM]
COC(=O)C1OC(O[C@H]2CC[C@]3(C)[C@H]4CC=C5[C@@H]6CC(C)(C)CC[C@]6(C(=O)OC6OCC(O)C(O)C6OC6OC(C)C(OC7OCC(O)C(O)C7O)C(O)C6O)CC[C@@]5(C)[C@]4(C)CC[C@H]3C2(C)C)C(O)C(O)C1O (some centres not stated)	32 µM and 24.9 µM	27.6 µM and 29.5 µM	> 100	30.8 µM and 29.5 µM	27.2 µM and 25.7 µM	30.5 µM and 29 µM	30.3	39.5 µM and 48.7 µM	34.3 µM and 29.8 µM	33.7 µM and 32 µM	25.9 µM and 34.9 µM									
C=C1CCC([N+](=O)[O-])[C@](C)(N=O)CC[C@@H]2C1CC2(C)C (some centres not stated)	> 100 µM	> 100 µM	65.4	45.4 µM	39.6 µM	41.7 µM	65.5	47.2 µM	84.6 µM	40.4 µM	> 100 µM									
C=C(C)[C@@H]1CCC2=C[C@H](OC2=O)[C@@]2(C)C[C@@H]2C2=CC(C)=C(O2)[C@H]1O	> 75 µM	> 75 µM	> 75	> 75 µM	> 75 µM	> 75 µM	> 75	> 75 µM	> 75 µM	> 75 µM	> 75 µM									
COC(=O)c1ccccc1C1CN=NC12Cc1cc(C)ccc1C2=O (configuration not stated)	> 100 µM	> 100 µM	> 100	> 100 µM	75.4 µM	> 100 µM	> 100	> 100 µM	> 100 µM	> 100 µM	> 100 µM									
CCOC(=O)c1c(N2CCOCC2)[nH]c(=O)c(C(c2ccco2)c2c(O)c(C(=O)OCC)c(N3CCOCC3)[nH]c2=O)c1O	> 100 µM	> 100 µM	> 100	> 100 µM	> 100 µM	> 100 µM	> 100	> 100 µM	> 100 µM	> 100 µM	> 100 µM									
CCOC(=O)C(SCCO)C(C(=O)OCC)n1ccc(=O)[nH]c1=O (configuration not stated)	34 µM	> 100 µM	> 57.5	83.3 µM	> 62.1 µM	> 43.8 µM	> 87.4	46.8 µM	> 86.5 µM	> 100 µM	39.5 µM									
CC(=O)OCc1ccc2oc(=O)c(C(=O)Oc3ccccc3)cc2c1	> 100 µM	34.5 µM	50	> 100 µM	> 100 µM	> 100 µM	> 100	> 100 µM	> 100 µM	> 100 µM	38.5 µM									
Cc1ccc(S(=O)(=O)NNCNC(=O)c2ccccc2)cc1	33.1 µM	> 100 µM	> 100	> 100 µM	> 100 µM	> 100 µM	> 100	> 100 µM	> 100 µM	> 100 µM	> 100 µM									
Cc1cc(=O)oc2c(CNC(Cc3ccccc3)C(=O)O)c(O)ccc12 (configuration not stated)	> 100 µM	> 100 µM	> 100	> 100 µM	> 100 µM	> 100 µM	> 100	> 100 µM	> 100 µM	> 100 µM	> 100 µM									
CC(C)(C)OC(=O)N1C(c2cccnc2)=CC[C@H]2C3CC=C(c4cccnc4)[C@@]3(C)CC[C@@H]21 (some centres not stated)	22.2 µM	19.3 µM	13.8	11.8 µM	11.1 µM	8.41 µM	28.8	15.8 µM	19.3 µM	10.3 µM	30.2 µM									
N[C@H]1CCCC[C@@H]1N1C(=O)c2ccccc2C1(O)c1ccc(Cl)cc1 (some centres not stated)	29.9 µM	24.4 µM	26.7	15.6 µM	27.5 µM	22.5 µM	9.75	24.2 µM	24.6 µM	30.1 µM	20.7 µM									
O=C1C(c2c(O)[nH]c3ccc(Br)cc23)=Nc2ccccc21	> 100 µM	17.8 µM	> 100	15 µM	3.72 µM	25.8 µM	50.5	> 100 µM	29.8 µM	20.2 µM	38.8 µM									
CC1=C(C(=O)Nc2ccccc2)C2(CCCCC2)C(C#N)=C(SCC(=O)Nc2ccc(Br)cc2)N1	6.11 µM	7.96 µM	20.2	8.53 µM	> 47.9 µM	9.96 µM	> 26	> 100 µM	> 75.2 µM	7.81 µM	17.6 µM									
CCCC(=O)OC1C(CO)OC(n2cc(F)c(=O)[nH]c2=O)C1F (configuration not stated)	> 100 µM	> 100 µM	> 100	> 100 µM	> 100 µM	> 100 µM	> 100	> 100 µM	> 100 µM	> 100 µM	> 100 µM									
CC(C)/C(Cl)=N\OC(=O)Nc1cccc(Cl)c1	7.22 µM	29.7 µM	31.3	35.1 µM	32 µM	8.71 µM	31.6	9.83 µM	27 µM	31.7 µM	34.8 µM									
C=C(Br)CNC(=O)CCC(=O)NCC(=C)Br	> 100 µM	> 100 µM	> 100	> 100 µM	> 100 µM	> 100 µM	> 100	> 100 µM	> 100 µM	> 100 µM	> 100 µM									
Cc1ccc(NC(=O)c2cc(S(=O)(=O)Nc3nc4ncccc4[nH]3)c(SSc3cc(Cl)c(C(=O)Nc4ccc(C)cc4)cc3S(=O)(=O)Nc3nc4ncccc4[nH]3)cc2Cl)cc1	> 100 µM	> 100 µM	> 100	> 100 µM	> 100 µM	> 100 µM	> 100	> 100 µM	> 100 µM	> 100 µM	> 100 µM									

SMILES	TGI (SR leukemia)	TGI (PC-3 prostate)	TGI (HCT-15 colon) [µM]	TGI (HT29 colon)	TGI (MCF7 breast)	TGI (LOX IMVI melanoma)	TGI (KM12 colon) [µM]	TGI (SW-620 colon)	TGI (OVCAR-4 ovarian)	TGI (EKVX NSCLC)	TGI (CAKI-1 renal)	GI50 (SR leukemia) [µM]	GI50 (PC-3 prostate) [µM]	GI50 (HCT-15 colon) [µM]	GI50 (LOX IMVI melanoma) [µM]	GI50 (KM12 colon) [µM]	GI50 (SW-620 colon) [µM]	GI50 (OVCAR-4 ovarian) [µM]	GI50 (EKVX NSCLC) [µM]	GI50 (CAKI-1 renal) [µM]
CC(=O)Nc1ccc(C2SCc3nc4ccccc4n32)cc1 (configuration not stated)	> 100 µM	> 100 µM	> 100	> 100 µM	> 100 µM	> 100 µM	> 100	> 100 µM	> 100 µM	> 100 µM	> 100 µM									
Cc1ccccc1S(=O)(=O)Nn1cnc2ccc(S(=O)(=O)Nc3ccc(Cl)cc3)cc2c1=O	> 100 µM	> 100 µM	> 100	> 100 µM	> 100 µM	> 100 µM	> 100	> 100 µM	> 100 µM	> 100 µM	> 100 µM									
CC(=O)O[C@H]1[C@H](OC(=O)CC(C)(O)CC(=O)O)C[C@]2(C)C3=C(CCC2C1(C)C)[C@]1(C)CC[C@H]([C@H]2CC[C@H](C(C)(C)O)OC2O)[C@@]1(C)[C@@H](O)C3 (some centres not stated)	60.1 µM	33.2 µM	34.9	30.2 µM	45.8 µM	35.9 µM	38.6	27.2 µM	37.8 µM	38.9 µM	36.7 µM									
CCC(=O)Nc1ccc(N2C(=O)C(Cl)C2c2ccc(SC)cc2)cc1 (configuration not stated)	> 100 µM	> 100 µM	> 100	> 100 µM	> 100 µM	> 100 µM	> 100	> 100 µM	> 100 µM	> 100 µM	> 100 µM									
N#Cc1ccc(-n2c3ccccc3c3ccc4c(c32)C(=O)C=CC4=O)cc1	6.92 µM	8.98 µM	16.1	5.88 µM	8.04 µM	> 25.4 µM	26.5	3.31 µM	13 µM	5.58 µM	2.72 µM									
Cc1ccnc(NC(NC(=O)c2ccccc2)(C(F)(F)F)C(F)(F)F)c1	> 100 µM	> 100 µM	> 100	> 100 µM	> 100 µM	> 100 µM	> 100	> 100 µM	> 100 µM	> 100 µM	> 100 µM									
C[C@@H]1CC[C@@H]2[C@@H](C1)O[C@@H]([C@H](C)OCc1ccccc1)SC2(C)C	35.6 µM	> 100 µM	82.7	> 100 µM	31.5 µM	32.8 µM	36.1	36.3 µM	> 100 µM	> 100 µM	> 100 µM									
N#Cc1cnc(N)nc1NCC1(CO)CC(CCc2ccccc2)C1 (configuration not stated)	> 100 µM	> 100 µM	> 100	> 100 µM	> 100 µM	> 100 µM	> 100	> 100 µM	> 100 µM	> 100 µM	> 100 µM									
CCCCCCCCCCNC(=O)CCC(NC(=O)c1ccc(N(C)Cc2cnc3nc(N)nc(N)c3n2)cc1)C(=O)NCCCCCCCCCC (configuration not stated)	> 24.5 µM	37.8 µM	> 100	35.2 µM	15.3 µM	5.81 µM	16.2	13.5 µM	> 45.4 µM	> 78.3 µM	> 100 µM									
O=[N+]([O-])c1ccc(N/N=C/c2ccc(OCCCCCCCCCCCO)cc2)c([N+](=O)[O-])c1	8.94 µM	14.7 µM	> 100	> 100 µM	> 93.6 µM	59.7 µM	7.84	> 100 µM	13.7 µM	52.1 µM	8.94 µM									
N#Cc1c(N)nc(Sc2ccccc2N)c(C#N)c1-c1ccc(Cl)cc1	> 40.5 µM	20.7 µM	54.7	> 100 µM	29.6 µM	15.3 µM	35.9	> 100 µM	> 100 µM	> 56.1 µM	45 µM									
CC(=O)OCC1OC(n2c(-c3ccc(C)cc3)cc(-c3ccccc3)c(C#N)c2=S)C(OC(C)=O)C(OC(C)=O)C1OC(C)=O (configuration not stated)	> 100 µM	> 100 µM	> 100	> 100 µM	> 100 µM	> 100 µM	> 100	> 100 µM	> 100 µM	> 100 µM	> 100 µM									
Nn1c(Cc2ccc([N+](=O)[O-])cc2)n[nH]c1=O	> 100 µM	> 100 µM	> 100	> 100 µM	> 100 µM	> 100 µM	> 100	> 100 µM	> 100 µM	> 100 µM	> 100 µM									
Cn1c2ccccc2c(=O)c2cccc(C(=O)NC(CCC(N)=O)C(=O)O)c21 (configuration not stated)	> 100 µM	> 100 µM	> 100	> 100 µM	> 100 µM	> 100 µM	> 100	> 100 µM	> 100 µM	> 100 µM	> 100 µM									
CO/N=C(\C)CCC#Cc1ccccc1C(=O)OC	> 10 µM	> 10 µM	> 10	> 10 µM	> 10 µM	> 10 µM	> 10	> 10 µM	> 10 µM	> 10 µM	> 10 µM									
COC(=O)C(CCSC)NC(=O)Cc1ccc(C(=O)c2ccccc2)cc1 (configuration not stated)	> 100 µM	> 100 µM	> 100	65.5 µM	> 100 µM	> 100 µM	> 100	> 100 µM	> 100 µM	> 100 µM	> 100 µM									
COc1cc2c(cc1OCCCC(=O)Nc1ccc3ccc4cccc5ccc1c3c45)N=C[C@@H]1CCCN1C2=O		6.69 µM	> 100	> 83.6 µM	0.297 µM	> 100 µM	0.725	0.0483 µM	10.1 µM	0.169 µM	1.63 µM	< 0.01	0.222	0.169	0.0143	0.104	< 0.0126	< 0.01	0.0299	0.434
